According to US20260130928A1, “COMBINATION OF AKR1C3 ACTIVATED ANTICANCER PRODRUG COMPOUND AND ANALGESIC DRUG FOR TREATING CANCER PATIENTS ACCOMPANIED BY PAIN” (ASCENTAWITS PHARMACEUTICALS, LTD., priority 2022, published 2026):
Where two headings read alike, the source gives them in different places.

Tests used:
[1] = cited from earlier work
[2] = system: human lung cancer NCI-H460; test: Pharmacodynamics in subcutaneous xenograft model of human lung cancer NCI-H460 (tumor volume, TGI); type: in vivo, BALB/c nude mice
Protocol: Measures of pharmacodynamics of AST-3424 monotherapy and combination therapy with Celecoxib were performed in a subcutaneous xenograft model of human lung cancer NCI-H460 established by using female BALB/c nude mice.
After the inoculation of tumor cell, tumor growth was routinely monitored, and tumor volume and mouse weight were measured. Evaluation of therapeutic efficiency was based on the relative tumor growth inhibition TGI (%). The specific results are shown in Table 3 and FIG. 3, and the Pharmacodynamics analysis data on Day 30 after inoculation (at the end of drug administration) are particularly given in Table 4.

[3] = Body weight / tolerance of mice in the human lung cancer NCI-H460 model
Protocol: BALB/c nude mice were subcutaneously inoculated with human lung cancer NCI-H460 cells to establish the subcutaneous transplant tumor model of human lung cancer. The experiment was assigned to seven groups, with 5 mice in each group: the test drug Celecoxib 50 mg/kg and 100 mg/kg groups, the AST-3424 2.5 mg/kg group, and different combination therapy groups of Celecoxib 50 mg/kg or 100 mg/kg and AST-3424 2.5 mg/kg, and the 0.5% sodium carboxymethylcellulose vehicle control group. […] The AST-3424 2.5 mg/kg group was administered by tail vein injection once a week for a total of three weeks, and observed for 7 days. In the combination therapy groups of Celecoxib 50 mg/kg or 100 mg/kg and AST-3424 2.5 mg/kg, Celecoxib was administered by gavage once a day for a total of 15 days, and AST-3424 was administered by tail vein injection once a week for a total of three weeks, and observed for 7 days.

[4] = read-out: Cmax converted to the molar concentration; celecoxib single dosage (200 mg) in healthy subjects
AKR1C3 = details: reported in literature; cited from earlier work
H460 cell line = test: In vitro cell proliferation inhibition with the drug combination (CTG method); type: cell-based, human; details: combined with AST-3424
Protocol: • a) H460 cells (human non-small lung cancer cells, AKR1C3 enzyme highly expressed) were cultured in RPMI-1640 medium, added with 10% FBS and 1% double antibody, and placed at 37° C. and 5% CO2 for culturing.
• a) The cells were routinely cultured until the cell saturation was 80%-90%, and when the required quantity was reached, the cells were collected. • b) The cells were resuspended with the corresponding medium and cell counts were performed to prepare a cell suspension with appropriate density. • c) The cell suspension was added to a 96-well plate with 100 μL per well, and the cell density was 2,000 cells per well. • d) The cells were incubated overnight in an incubator at 37° C. with 5% CO2. 1.1.3 Treating Cells with Compound (72 Hours)
AST-3424 alone: after 24 hours of cell seeding, AST-3424 was administered alone. Specifically, each well was supplemented with 99 μL of growth medium, and then added with 1 μL of the prepared AST-3424 solution to form different concentrations of AST-3424. The plate was shaken gently to ensure uniform mixing, and placed in an incubator at 37° C. with 5% CO2.
The cell plates were placed in the incubator for 72 hours.
1.1.4 Treating Cells with Compound (2 Hours) • a) Administrating single drug: after 24 hours of cell seeding, AST-3424 was administered alone. Specifically, each well was supplemented with 99 μL of growth medium, and then added with 1 μL of the prepared AST-3424 solution to form different concentrations of AST-3424. The plate was shaken gently to ensure uniform mixing, and placed in the incubator for 2 hours. […] The plate was shaken gently to ensure uniform mixing. After the plate was placed in the incubator for 2 hours, 1 μL of the prepared AST-3424 solution was added to form different concentrations of AST-3424. The plate was shaken gently to ensure uniform mixing, and placed in the incubator at 37° C. with 5% CO2 for another 2 hours. Then, the supernatant was discarded, and the remainder was washed twice with growth medium and added with 200 μL of fresh medium.
1.1.6 Detecting with CTG Method • a) The cell plate to be tested was placed at room temperature to equilibrium for 30 minutes, and 100 μL of culture medium was discarded from each well. • b) 25 μL CTG reagent (CelltiterGlo kit) was added to each well. The plate was placed on a fast shaker to shake for 2 minutes, and then placed at room temperature away from light for 30 minutes. • c) The chemiluminescent signal value was read with multifunctional microplate reader at reading time of 1000 ms.
IC50 was calculated with GraphPad Prism 5 software, and the IC50 (half maximal inhibitory concentration) of the compound was obtained using the following nonlinear fitting formula: […]

clinical = details: human, in vivo
[5] = Group 2: Celecoxib 50 mg/kg QD×15 p.o., Day 30 after inoculation
[6] = Group 3: Celecoxib 100 mg/kg QD×15 p.o., Day 30 after inoculation
[7] = Group 2: Celecoxib 50 mg/kg QD×15 p.o., Day 37 after the inoculation of tumor cell
[8] = Group 3: Celecoxib 100 mg/kg QD×15 p.o., Day 37 after the inoculation of tumor cell

SMILES: Cc1ccc(-c2cc(C(F)(F)F)nn2-c2ccc(S(N)(=O)=O)cc2)cc1 [Celecoxib]
- Cmax ([1]; celecoxib single dosage (200 mg) in healthy subjects, drug instructions): 705 ng/mL
- Tumor volume (x ± S) ([2]; Group 2: Celecoxib 50 mg/kg QD×15 p.o., Day 9 after cell inoculation): 145.68 ± 12.36 mm^3
- Tumor volume (x ± S) ([2]; Group 2: Celecoxib 50 mg/kg QD×15 p.o., Day 12 after cell inoculation): 162.55 ± 9.74 mm^3
- Tumor volume (x ± S) ([2]; Group 2: Celecoxib 50 mg/kg QD×15 p.o., Day 16 after cell inoculation): 175.22 ± 11.61 mm^3
- Tumor volume (x ± S) ([2]; Group 2: Celecoxib 50 mg/kg QD×15 p.o., Day 19 after cell inoculation): 214.83 ± 26.19 mm^3
- Tumor volume (x ± S) ([2]; Group 2: Celecoxib 50 mg/kg QD×15 p.o., Day 23 after cell inoculation): 361.15 ± 68.57 mm^3
- Tumor volume (x ± S) ([2]; Group 2: Celecoxib 50 mg/kg QD×15 p.o., Day 26 after cell inoculation): 471.39 ± 90.94 mm^3
- Tumor volume (x ± S) ([2]; Group 2: Celecoxib 50 mg/kg QD×15 p.o., Day 30 after cell inoculation): 577.49 ± 102.95 mm^3
- Relative tumor volume (x ± S) [2, 5]: 3.91 ± 0.45
- T/C (%) [2, 5]: 70.13%
- TGI (%) [2, 5]: 29.87%
- Tumor volume (x ± S) ([2]; Group 2: Celecoxib 50 mg/kg QD×15 p.o., Day 30 after inoculation, in mm³): 577.49 ± 102.95
- Tumor volume (x ± S) ([2]; Group 2: Celecoxib 50 mg/kg QD×15 p.o., Day 33 after cell inoculation): 655.39 ± 126.55 mm^3
- Tumor volume (x ± S) ([2]; Group 2: Celecoxib 50 mg/kg QD×15 p.o., Day 37 after cell inoculation): 1053.12 ± 274.37 mm^3
- Tumor volume (x ± S) ([2]; Group 3: Celecoxib 100 mg/kg QD×15 p.o., Day 9 after cell inoculation): 144.13 ± 11.94 mm^3
- Tumor volume (x ± S) ([2]; Group 3: Celecoxib 100 mg/kg QD×15 p.o., Day 12 after cell inoculation): 166.97 ± 17.80 mm^3
- Tumor volume (x ± S) ([2]; Group 3: Celecoxib 100 mg/kg QD×15 p.o., Day 16 after cell inoculation): 233.79 ± 48.62 mm^3
- Tumor volume (x ± S) ([2]; Group 3: Celecoxib 100 mg/kg QD×15 p.o., Day 19 after cell inoculation): 331.06 ± 73.94 mm^3
- Tumor volume (x ± S) ([2]; Group 3: Celecoxib 100 mg/kg QD×15 p.o., Day 23 after cell inoculation): 479.72 ± 117.21 mm^3
- Tumor volume (x ± S) ([2]; Group 3: Celecoxib 100 mg/kg QD×15 p.o., Day 26 after cell inoculation): 581.86 ± 130.92 mm^3
- Tumor volume (x ± S) ([2]; Group 3: Celecoxib 100 mg/kg QD×15 p.o., Day 30 after cell inoculation): 730.52 ± 183.64 mm^3
- Relative tumor volume (x ± S) [2, 6]: 4.86 ± 0.82
- T/C (%) [2, 6]: 87.16%
- TGI (%) [2, 6]: 12.84%
- Tumor volume (x ± S) ([2]; Group 3: Celecoxib 100 mg/kg QD×15 p.o., Day 30 after inoculation, in mm³): 730.52 ± 183.64
- Tumor volume (x ± S) ([2]; Group 3: Celecoxib 100 mg/kg QD×15 p.o., Day 33 after cell inoculation): 867.83 ± 225.15 mm^3
- Tumor volume (x ± S) ([2]; Group 3: Celecoxib 100 mg/kg QD×15 p.o., Day 37 after cell inoculation): 1459.88 ± 505.50 mm^3
- Mean body weight g (x ± S) ([3]; Group 2: Celecoxib 50 mg/kg QD×15 p.o., Day 9 after the inoculation of tumor cell): 24.8 ± 0.5 g
- Change of body weight (%) [3, 7]: 4.05%
- Mean body weight g (x ± S) [3, 7]: 25.8 ± 0.4 g
- Mean body weight g (x ± S) ([3]; Group 3: Celecoxib 100 mg/kg QD×15 p.o., Day 9 after the inoculation of tumor cell): 25.2 ± 0.5 g
- Change of body weight (%) [3, 8]: 2.28%
- Mean body weight g (x ± S) [3, 8]: 25.8 ± 0.6 g
- Cmax [4]: 1.85 µM

SMILES: CC(C)Cc1ccc(C(C)C(=O)O)cc1 (centres unmarked) [Ibuprofen]
- AKR1C3 inhibitory activity (AKR1C3): have AKR1C3 inhibitory activity
- Cmax ([1]; ibuprofen reference preparation, single dose, fasting, healthy Chinese subjects): 19400 ng/mL
- effect of the combination on the cell proliferation inhibitory activity of AST-3424 (H460 cell line): almost no effect
- Cmax (clinical): 94 µM
